The values that follow come from PMC9916441, “Resveratrol Derivative Exhibits Marked Antiproliferative Actions, Affecting Stemness in Pancreatic Cancer Cells” (International Journal of Molecular Sciences, 2023).

In series [1] the test system is BxPC-3. The experiment in a line: Colony formation assay. Type of series: cell-based, human. The settings on record: BxPC-3, 20 µM, 72 h treatment. As to the method:
(§1) A colony formation assay was performed as previously described. Briefly, the PC cells were seeded in 6-well plates, incubated for 24 h, and then treated for 72 h with 20 μM DF5, DF12, and RSV or with vehicle (DMSO) as indicated. After 4 days, following methanol fixation and crystal violet staining, the colonies of at least 30 cells were counted.

In series [2] the test system is AsPC-1. The series is described as follows: Colony formation assay. The format is cell-based, human. The settings on record: AsPC-1, 20 µM, 72 h treatment. The method, then: as §1
Series [3] concerns Capan-2. The series is described as follows: Colony formation assay. The format is cell-based, human. The settings on record: Capan-2, 20 µM, 72 h treatment. The method, then: as §1
In series [4] the test system is BxPC-3. The series is described as follows: MTT cell viability assay. Type of series: cell-based, human. The settings on record: for IC50: Homo sapiens, BxPC-3, MTT, 72 h. The method, then:
(§2) The cell viability was assessed using MTT assay, as previously described. Briefly, the cells were seeded in 96-well plates (4 × 10^3 cells/well) and were treated for 72 h with different concentrations of RSV, DF5, and DF12. The IC50 values were extrapolated from dose–response curves and calculated using the CompuSyn software (https://www.combosyn.com/). The selectivity index (SI) values were calculated as ratios between the IC50 values of compounds in normal HFF-1 fibroblast cells and the IC50 values of the same compounds in the PC cell lines.
(In general: Tetrazolium assays rely on reduction of a dye to a coloured formazan, in cell work by metabolically active cells.)

The test system of series [5] is AsPC-1. The series is described as follows: MTT cell viability assay. Type of series: cell-based, human. The settings on record: for IC50: Homo sapiens, ASPC1, AsPC-1, MTT, 72 h. As to the method:
as §2

Series [6] concerns Capan-2. The experiment in a line: MTT cell viability assay. The format is cell-based, human. The settings on record: for IC50 / viability at 50 µM: Homo sapiens, Capan-2, MTT; for IC50: 72 h; for viability at 50 µM: plateau reached already at 50 µM, read-out: residual viability. The method, then: as §2
Series [7] relates to BxPC-3. The experiment in a line: Apoptosis assay, annexin-V staining by flow cytometry. The settings on record: 24 h. Type of series: cell-based, human. The method, then: (§3) The apoptosis assay was performed essentially as previously described. the analyses were performed using a CytoFLEX flow cytometer, using the FL1 detector in linear mode and the CytoExpert software (Beckmann Coulter, Milano, Italy).
A general note: A flow cytometer gives signals particle by particle.

Series [8] has as its system AsPC-1. Described as above. The format is cell-based, human. The settings on record: 24 h. The method, then:
as §3

The test system of series [9] is Capan-2. Described as above. The format is cell-based, human. The settings on record: 24 h. As to the method: as §3
Series [10] relates to AsPC-1, BxPC-3 and Capan-2 PC cell lines. The experiment in a line: Cell growth, trypan blue exclusion test. Type of series: cell-based, human. The settings on record: 50 μM, counted at 24, 48 and 72 h, three PC cell lines, vs control. As to the method: The cell counting was performed using the trypan blue exclusion test. Briefly, PC cells were seeded in 24-well plates (5 × 10^4 cells/well) and then were treated with 50 μM of DF5, RSV, or with vehicle and counted at 24, 48, and 72 h.

The subject of series [11] is BxPC-3. The experiment in a line: Flow cytometry immunophenotyping of CD133+EpCAM+ cancer stem-like subpopulation. Type of series: cell-based, human. The settings on record: BxPC-3, 20 μM, 72 h. The method, then: (§4) The expression of CD133 and EpCAM surface antigens was evaluated using flow cytometry. Briefly, the PC cells were seeded in 6-well plates and treated for 72 h with 20 μM DF5, RSV, or with vehicle (DMSO). After treatment, the cells were collected in PBS and stained at room temperature in the dark for 30 min with PE-CD133, FITC-EpCAM antibodies, and Reactive Dye. After labeling, the samples were washed in PBS by centrifugation at 1500 rpm for 10 min, to remove excess antibodies. Flow cytometer performance, stability, and data reproducibility were daily checked by using the CS&T quality control Module (BD Biosciences). The gating strategy and the evaluation of non-specific fluorescence was determined using fluorescence minus one (FMO) controls. The data were acquired with FACSVerse analyzer equipped with a volumetric count module (BD Biosciences, San Jose, CA, USA) and are expressed as the percentage of positive cells.

Series [12] has as its system AsPC-1. The series is described as above. The settings on record: AsPC-1, 20 μM, 72 h. Type of series: cell-based, human. As to the method: as §4
Series [13] deals with Capan-2. Described as above. Type of series: cell-based, human. The settings on record: Capan-2, 20 μM, 72 h. As to the method: as §4
In another series the test system is cyclin B1/CDK1 complex. The experiment in a line: Western blot of cyclin B1, Cdc2/Cdk1 and p-Cdc2 (Thr161) in PC cell lines. Type of series: cell-based, human. The settings on record: 50 μM, BxPC-3. The method, then: (§5) The PC cell lines treated with 50 μM DF5, RSV, or with vehicle (DMSO) were lysed in a cell lysis buffer containing PMSF, protease inhibitors cocktails, and phosphatase inhibitors. The protein lysate quantification and immunoblot analyses were performed as previously described.
For orientation: In western blotting, separated proteins are transferred to a membrane and probed.

The test system of series [14] is poly-(ADP-ribose) polymerase (PARP). The experiment in a line: Western blot of PARP cleavage in PC cell lines. The settings on record: vs untreated cells. Type of series: cell-based, human. As to the method:
as §5

The test system of another series is Cyclin D3. The experiment in a line: Western blot of cyclin D3 in PC cell lines. The format is cell-based, human. The settings on record: 50 μM. As to the method:
as §5

Details of series [15]: method as in PMID 25224342. The settings on record: based on solubility of ref 43; cited from earlier work.
The test system of another series is p-SER^139H2AX. The experiment in a line: Western blot of phospho-H2AX (γH2AX) in PC cell lines. The format is cell-based, human. The method, then: as §5
Series [16] deals with normal HFF-1 fibroblast cells. The series is described as follows: MTT cell viability assay on normal fibroblasts. Type of series: cell-based, human. The settings on record: 72 h. The method, then:
as §2

The test system of series [17] is AsPC-1, BxPC-3 and Capan-2 PC cell lines. The series is described as follows: Cell cycle analysis by flow cytometry. Type of series: cell-based, human. The settings on record: 50 μM, 24 h. The method, then:
To perform the cell cycle analysis, the PC cells (3 × 10^5) were collected, fixed in 70% cold ethanol, and kept at 4 °C overnight. The collected cells were incubated at 4 °C overnight in 5 μg/mL PI (final concentration) and 100 μg/mL RNAse (final concentration). The cell cycle profiles were analyzed as previously described.

Consider `Oc1ccc(/C=C/c2ccc3ccccc3c2)cc1` [DF12], for which the “effect on clonogenicity (colony formation)” value with BxPC-3 [1] was “relevant effects on clonogenic capacity”; in the series on AsPC-1 [2], “relevant effects on clonogenic capacity”; with Capan-2 [3] it was “marginal effects”. The IC50 – broadly, the concentration that gives 50% inhibition – in the series on BxPC-3 [4] was determined as 18.3 µM; with AsPC-1 [5] it was 11.1 µM; with Capan-2 [6], 58.1 µM. Besides, the viability (commonly a per cent measure of how many cells are alive, often set against a control) at 50 µM in the series with Capan-2 [6] is more than 50%.

In the case of `Oc1ccc(/C=C/c2cc(O)cc(O)c2)cc1` [RSV, 3,5,4′-trihydroxy-trans-stilbene, reference compound], the “apoptosis induction (Annexin V+ cells)” value in the series with BxPC-3 [7] (BxPC-3, 20 μM) was “neither compound affected apoptosis”; in the series with BxPC-3 [7] (BxPC-3, 50 μM), “significant but less marked increment of apoptotic cells”; in the series on AsPC-1 [8] (AsPC-1, 20 μM), “statistically significant apoptosis”; with AsPC-1 [8] (AsPC-1, 50 μM), “significant but less marked increment of apoptotic cells”; in the series with Capan-2 [9] (Capan-2, 20 μM), “statistically significant apoptosis”; in the series with Capan-2 [9] (Capan-2, 50 μM) it was “significant but less marked increment of apoptotic cells”. Further, in [10], the “effect on cell growth (cell number)” value was “significantly, drastically, and comparably affected cell growth”. Further, the “effect on clonogenicity (colony formation)” value was “significantly, but modestly, affected clonogenic activity” in the series on BxPC-3 [1]; “significantly, but modestly, affected clonogenic activity” in the series with AsPC-1 [2]; “significantly, but modestly, affected clonogenic activity” in the series on Capan-2 [3]. Besides, the figures for the “effect on percentage of CD133+EpCAM+ cancer stem-like subpopulation” value in the series on BxPC-3 [11], in the series on AsPC-1 [12] and in the series on Capan-2 [13] were “more marked effect”, “did not affect this subpopulation” and “did not affect this subpopulation”, respectively. Further, the “effect on expression of the cyclin B1/CDK1 complex” value in the series on cyclin B1/CDK1 complex was “much less evident”. For the same compound, the “effect on cleaved:uncleaved PARP ratio” value in [14] (AsPC-1, 50 μM) is “affected the PARP cleavage ratio”; in [14] (BxPC-3, 50 μM), “small”; in series [14] (Capan-2, 50 μM), “negligible”. The “effect on cyclin D3 expression” value in the series on Cyclin D3 is “present but less marked”. Further, the “Classification (water solubility)” value in series [15] is on record as “PI (PI (Practically Insoluble))”. Further, the “activation (phosphorylation) of H2AX” value was “increased H2AX phosphorylation” with p-SER^139H2AX (AsPC-1, 50 μM); “to a lesser extent” with p-SER^139H2AX (BxPC-3, 50 μM); “no activation of H2AX” in the series on p-SER^139H2AX (Capan-2, 50 μM). Further, the IC50 is 48.7 µM in the series with BxPC-3 [4]; 29 µM in the series on AsPC-1 [5]; more than 100 µM in the series on Capan-2 [6]; more than 100 µM in [16] (Homo sapiens, normal HFF-1 fibroblasts, 100 μM highest concentration used). In addition, the “Selectivity Index (SI) BxPC-3” value in the series with BxPC-3 [4] (SI = IC50 on normal HFF-1 fibroblast cells/IC50 on BxPC-3) is given as more than 2.05. In the series with AsPC-1 [5] (SI = IC50 on normal HFF-1 fibroblast cells/IC50 on AsPC-1), the “Selectivity Index (SI) AsPC-1” value was more than 3.45. For the same compound, the viability at 50 µM in the series on Capan-2 [6] was more than 50%. Also, the “Selectivity Index (SI) Capan-2” value in the series with Capan-2 [6] (SI = IC50 on normal HFF-1 fibroblast cells/IC50 on Capan-2) is on record as more than 1.00. Besides, the “toxicity against normal HFF-1 fibroblast cells” value in series [16] (up to 100 μM) is given as “negligible toxicity”. In series [17] (across the three PC cell lines, vs untreated cells), the “effect on cells in G0/G1 phase” value is “statistically significant accumulation of cells at the G0/G1 phase”. Further, in series [17] (three PC cell lines, in Capan-2 it did not reach statistical significance), the “effect on cells in G2/M phase” value is “drastic depletion of cells in the G2/M phase”.
